For orientation: inhibition means the percentage by which the read-out fell short of the control.

Entries after “also recorded” stand apart in the source; their conditions may differ. Read-outs that look alike come from different tables or passages of the source. Where a SMILES comes first, the peptide text is derived from it.

The record followed here is paper PMC3705398 (Marine Drugs, 2013).

Experiment [1] deals with adult male ICR mice. The settings on record: mouse, in vivo.
The target in experiment [2] is T1, CaV2.2 (N-type) calcium channels in rat superior cervical ganglion (SCG) neurons (Rattus norvegicus, UniProt Q02294).
T1 construct: SCG neurons are the most used native preparation to assess CaV2.2 (N-type) channel function; endogenous in cells
As to the kind of experiment: cell-based. Format: cell-based, rat (Wistar).

For experiment [3], the system named is adult male ICR mice. Conditions: mouse, in vivo. This is another data set of the same source.
[4] abbreviates: read-out: inhibition of calcium current.

T1 sequence (Q02294 whole entry): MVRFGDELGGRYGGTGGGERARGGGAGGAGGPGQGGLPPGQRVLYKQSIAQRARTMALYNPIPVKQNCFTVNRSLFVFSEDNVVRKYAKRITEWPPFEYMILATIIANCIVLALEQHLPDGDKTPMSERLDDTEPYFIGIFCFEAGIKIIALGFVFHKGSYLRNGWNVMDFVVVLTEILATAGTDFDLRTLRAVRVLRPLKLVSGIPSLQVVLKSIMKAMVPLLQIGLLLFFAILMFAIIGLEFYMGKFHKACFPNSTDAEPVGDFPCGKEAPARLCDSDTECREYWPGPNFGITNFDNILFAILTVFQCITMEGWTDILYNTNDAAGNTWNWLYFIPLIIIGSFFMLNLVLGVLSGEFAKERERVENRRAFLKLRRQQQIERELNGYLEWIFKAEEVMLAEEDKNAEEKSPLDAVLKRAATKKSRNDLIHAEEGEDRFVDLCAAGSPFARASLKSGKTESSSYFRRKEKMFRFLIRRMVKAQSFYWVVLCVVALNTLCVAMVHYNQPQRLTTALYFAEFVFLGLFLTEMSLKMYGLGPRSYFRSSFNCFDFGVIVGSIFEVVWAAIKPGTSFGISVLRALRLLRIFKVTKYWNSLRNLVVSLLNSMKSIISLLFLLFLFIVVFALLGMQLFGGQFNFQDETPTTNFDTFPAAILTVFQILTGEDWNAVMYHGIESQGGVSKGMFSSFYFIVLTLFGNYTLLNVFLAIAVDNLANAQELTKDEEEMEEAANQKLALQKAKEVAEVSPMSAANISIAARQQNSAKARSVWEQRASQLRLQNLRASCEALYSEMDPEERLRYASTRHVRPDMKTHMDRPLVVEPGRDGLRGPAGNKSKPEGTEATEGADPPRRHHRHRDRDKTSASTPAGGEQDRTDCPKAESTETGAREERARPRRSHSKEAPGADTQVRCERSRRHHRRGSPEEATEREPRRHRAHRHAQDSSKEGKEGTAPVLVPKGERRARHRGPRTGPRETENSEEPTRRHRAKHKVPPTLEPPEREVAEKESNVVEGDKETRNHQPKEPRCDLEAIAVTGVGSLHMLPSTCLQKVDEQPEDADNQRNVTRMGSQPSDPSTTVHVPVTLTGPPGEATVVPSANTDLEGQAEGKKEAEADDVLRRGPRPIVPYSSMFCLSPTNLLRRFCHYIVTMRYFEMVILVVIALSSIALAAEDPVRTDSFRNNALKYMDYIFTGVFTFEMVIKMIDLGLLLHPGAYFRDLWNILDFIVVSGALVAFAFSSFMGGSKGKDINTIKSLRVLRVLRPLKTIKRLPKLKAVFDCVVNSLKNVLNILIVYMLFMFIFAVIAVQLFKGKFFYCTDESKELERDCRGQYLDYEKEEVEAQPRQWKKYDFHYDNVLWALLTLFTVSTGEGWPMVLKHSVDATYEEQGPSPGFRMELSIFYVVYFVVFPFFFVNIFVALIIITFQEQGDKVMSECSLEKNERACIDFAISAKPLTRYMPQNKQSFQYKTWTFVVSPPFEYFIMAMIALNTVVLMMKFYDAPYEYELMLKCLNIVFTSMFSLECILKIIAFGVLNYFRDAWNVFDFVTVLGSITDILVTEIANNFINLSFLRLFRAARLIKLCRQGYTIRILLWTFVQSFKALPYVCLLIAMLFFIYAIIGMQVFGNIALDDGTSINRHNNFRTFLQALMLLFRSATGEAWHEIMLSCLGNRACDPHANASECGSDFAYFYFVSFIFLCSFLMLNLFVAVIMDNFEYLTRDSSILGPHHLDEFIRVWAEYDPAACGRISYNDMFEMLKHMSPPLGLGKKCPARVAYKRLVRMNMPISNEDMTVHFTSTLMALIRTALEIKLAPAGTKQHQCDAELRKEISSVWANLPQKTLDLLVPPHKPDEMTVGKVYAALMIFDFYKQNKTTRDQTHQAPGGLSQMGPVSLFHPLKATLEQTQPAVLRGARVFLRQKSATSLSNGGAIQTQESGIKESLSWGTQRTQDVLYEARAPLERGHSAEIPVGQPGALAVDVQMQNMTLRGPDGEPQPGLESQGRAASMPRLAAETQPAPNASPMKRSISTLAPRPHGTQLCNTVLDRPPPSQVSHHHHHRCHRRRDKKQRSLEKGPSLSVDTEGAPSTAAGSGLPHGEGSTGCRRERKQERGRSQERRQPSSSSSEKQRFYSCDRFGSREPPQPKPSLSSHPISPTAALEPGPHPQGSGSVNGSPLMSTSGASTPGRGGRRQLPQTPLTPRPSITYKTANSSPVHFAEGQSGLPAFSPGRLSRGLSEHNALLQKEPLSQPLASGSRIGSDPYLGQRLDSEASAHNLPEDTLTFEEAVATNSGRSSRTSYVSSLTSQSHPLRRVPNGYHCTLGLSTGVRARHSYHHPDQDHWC
T1 sequence (P54290 25-1091 partner): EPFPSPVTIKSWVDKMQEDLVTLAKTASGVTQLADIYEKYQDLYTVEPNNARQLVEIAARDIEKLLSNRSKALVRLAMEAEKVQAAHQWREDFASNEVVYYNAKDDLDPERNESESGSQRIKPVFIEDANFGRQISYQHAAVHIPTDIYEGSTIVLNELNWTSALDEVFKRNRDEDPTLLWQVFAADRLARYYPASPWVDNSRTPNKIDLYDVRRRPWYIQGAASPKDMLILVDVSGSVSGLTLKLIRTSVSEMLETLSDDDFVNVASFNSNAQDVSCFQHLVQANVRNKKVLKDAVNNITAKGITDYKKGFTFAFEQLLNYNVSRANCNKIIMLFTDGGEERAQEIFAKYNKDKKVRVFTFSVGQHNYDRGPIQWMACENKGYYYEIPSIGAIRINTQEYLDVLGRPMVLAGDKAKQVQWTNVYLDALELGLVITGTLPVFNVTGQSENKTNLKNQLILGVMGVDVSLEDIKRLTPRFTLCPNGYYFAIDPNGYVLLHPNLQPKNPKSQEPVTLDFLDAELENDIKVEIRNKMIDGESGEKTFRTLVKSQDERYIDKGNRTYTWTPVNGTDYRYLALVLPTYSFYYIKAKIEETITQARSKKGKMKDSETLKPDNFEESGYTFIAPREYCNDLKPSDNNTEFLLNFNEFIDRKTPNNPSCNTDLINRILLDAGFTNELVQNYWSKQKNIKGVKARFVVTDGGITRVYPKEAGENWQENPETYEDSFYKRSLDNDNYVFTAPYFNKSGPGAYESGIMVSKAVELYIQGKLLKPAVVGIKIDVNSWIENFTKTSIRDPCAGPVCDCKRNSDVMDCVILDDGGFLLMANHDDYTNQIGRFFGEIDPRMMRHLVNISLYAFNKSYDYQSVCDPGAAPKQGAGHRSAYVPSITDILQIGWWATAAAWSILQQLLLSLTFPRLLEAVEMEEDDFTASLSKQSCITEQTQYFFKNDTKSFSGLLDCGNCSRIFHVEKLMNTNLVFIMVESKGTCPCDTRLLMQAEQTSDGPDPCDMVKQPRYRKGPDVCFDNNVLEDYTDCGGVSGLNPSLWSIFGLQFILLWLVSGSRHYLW
T1 sequence (P54287 whole entry partner): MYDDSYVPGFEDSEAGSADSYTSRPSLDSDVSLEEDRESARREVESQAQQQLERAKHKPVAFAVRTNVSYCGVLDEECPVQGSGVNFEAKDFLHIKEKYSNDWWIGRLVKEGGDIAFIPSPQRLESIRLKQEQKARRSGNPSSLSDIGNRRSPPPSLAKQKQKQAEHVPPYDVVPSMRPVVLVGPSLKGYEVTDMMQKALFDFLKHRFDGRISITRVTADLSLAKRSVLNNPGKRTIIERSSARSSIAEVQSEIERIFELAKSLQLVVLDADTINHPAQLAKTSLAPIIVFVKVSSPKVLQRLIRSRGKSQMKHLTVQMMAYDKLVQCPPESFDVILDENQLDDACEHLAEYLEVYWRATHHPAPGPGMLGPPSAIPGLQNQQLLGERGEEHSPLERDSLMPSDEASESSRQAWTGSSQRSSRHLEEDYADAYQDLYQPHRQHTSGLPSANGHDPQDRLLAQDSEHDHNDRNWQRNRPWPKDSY

For the molecule `CSCC[C@H](NC(=O)[C@H](CC(C)C)NC(=O)[C@H](CCCNC(=N)N)NC(=O)[C@H](CO)NC(=O)CNC(=O)[C@H](CCCCN)NC(=O)[C@H](CO)NC(=O)[C@H](CC(C)C)NC(=O)[C@H](CS)NC(=O)[C@H](Cc1ccccc1)NC(=O)[C@H](CCC(=O)O)NC(=O)[C@H](CCCCN)NC(=O)[C@@H](NC(=O)[C@H](CO)NC(=O)[C@H](CS)NC(=O)[C@H](CO)NC(=O)[C@H](CO)NC(=O)[C@H](CS)NC(=O)[C@H](CO)NC(=O)[C@H](CCC(N)=O)NC(=O)CNC(=O)[C@H](CCCCN)NC(=O)[C@@H](N)CS)[C@@H](C)O)C(=O)N[C@@H](Cc1ccc(O)cc1)C(=O)N[C@@H](CC(=O)O)C(=O)N[C@@H](CS)C(=O)N[C@@H](CS)C(=O)N[C@H](C(=O)NCC(=O)N[C@@H](CO)C(=O)N[C@@H](CS)C(=O)N[C@@H](CS)C(=O)NCC(=O)N[C@H](C(=O)N[C@@H](CCCCN)C(=O)N[C@H](C(=O)N[C@@H](C)C(=O)NCC(=O)N[C@H](C(=O)N[C@H](C(=O)O)[C@@H](C)O)C(C)C)[C@@H](C)O)C(C)C)[C@@H](C)O` [RsXXIVA] (H-CKGQSCSSCSTKEFCLSKGSRLMYDCCTGSCCGVKTAGVT-OH), the “hind paw licking in formalin test (in words) compared with control group” value with adult male ICR mice [1] was “significantly reduced the hind paw licking during both phase 1 (Figure 6A) and phase 2 (Figure 6B)”. Moreover, in experiment [2], the “CaV2.2 current before restoration (under toxin)” value was −442.9 ± 213.8 pA, the “CaV2.2 current restored after toxin washout” value is −798.2 ± 313.4 pA, the “Hill coefficient of dose-response for CaV2.2 current inhibition” value came out at 0.94 and the “affinity for CaV2.2 (in words)” value is on record as “low affinity for CaV2.2”. Further, in experiment [2], the “reversibility of CaV2.2 current inhibition after washing” value was “partially reversed after washing; also recorded: partially reversible; also recorded: the inhibition of the CaV2.2 channel current occurred reversibly” and the “time to inhibit CaV2.2 current” value is “less than 4 s”. Further, in experiment [2] (setting [4]), the inhibition at 0.03 µM stood at 1.6 ± 0.1%, the inhibition at 0.3 µM turned out to be 12 ± 0.5%, the inhibition at 3 µM is 58.1 ± 2.6% and the inhibition at 24 µM was found to be 97.9 ± 0.5%. The inhibition at 3 µM in experiment [2] (read-out: percentage of inhibition compared to the block with 100 μM Cd2+) is 58.1%. The “analgesic effect in hot-plate test (in words) compared with control (PBS)” value in the experiment with adult male ICR mice [3] is “analgesic effect in acute thermal pain at 30 and 45 min post-injection; also recorded: significantly better than the control group (p < 0.05)”.
